According to ChEMBL document CHEMBL1201862, “PubChem BioAssay data set” (2004):
The source made the active and inactive calls.

Experiments:
[1] = growth induction of Burl-1 ts yeast mutant, dose response, counter-screen for SUMOylation pathway inhibitor project, whole organism, S. cerevisiae, luminescence (AID 463199); type: functional
[2] = biological target: Peroxisome proliferator-activated receptor gamma/Nuclear receptor corepressor 2 (Homo sapiens, UniProt P37231+Q9Y618); assay: Counterscreen for NR2E3 inverse agonists: TR-FRET-based biochemical high throughput dose response assay to identify inverse agonists of the interaction between peroxisome proliferator-activated receptor gamma (PPARg) and nuclear receptor co-repressor 2 (NCOR2).; type: functional
[3] = biological target: T1, Heat shock factor protein 1 (Mus musculus, UniProt P38532); assay: HSF1 potentiators in luciferase reporter cells, confirmation, cell-based, NIH3T3, luminescence, dose retest (AID 435004); type: functional;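 further: stress induced by proteasome inhibitor MG132 added 30 min after compound; luciferase reporter driven by HSF1 response element in NIH3T3 cells; actives raise luminescence as potentiators of the MG132 stress response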
T1 sequence (P38532 whole entry): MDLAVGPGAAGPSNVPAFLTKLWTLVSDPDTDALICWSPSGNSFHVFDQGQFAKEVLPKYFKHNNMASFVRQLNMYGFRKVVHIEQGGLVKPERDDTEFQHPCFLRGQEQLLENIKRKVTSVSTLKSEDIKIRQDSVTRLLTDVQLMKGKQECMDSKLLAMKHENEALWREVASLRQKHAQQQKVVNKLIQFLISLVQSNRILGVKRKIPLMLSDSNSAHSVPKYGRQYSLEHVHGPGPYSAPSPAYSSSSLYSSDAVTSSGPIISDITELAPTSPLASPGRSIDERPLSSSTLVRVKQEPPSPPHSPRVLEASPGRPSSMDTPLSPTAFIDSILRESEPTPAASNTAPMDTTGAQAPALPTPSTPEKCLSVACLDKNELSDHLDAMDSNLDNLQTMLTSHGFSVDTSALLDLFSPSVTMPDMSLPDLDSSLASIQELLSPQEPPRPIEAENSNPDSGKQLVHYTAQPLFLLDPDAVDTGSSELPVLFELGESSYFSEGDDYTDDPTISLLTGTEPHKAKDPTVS

ORF 73 = ORF 73 (Human herpesvirus 8, UniProt O40947); assay: inhibitors of C-LANA binding to LBS DNA, dose response, biochemical, fluorescence polarization, cherry-picked samples (AID 504725); parameters: species or system Human gammaherpesvirus 8;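 further: fluorescence polarization of a labeled DNA duplex reporting LANA DNA binding; potency is for inhibitors that block LANA binding to the DNA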
[4] = biological target: Photoreceptor-specific nuclear receptor (Homo sapiens, UniProt Q9Y5X4); assay: NR2E3 inverse agonists, dose response, biochemical, TR-FRET (AID 463256); type: functional
[5] = biological target: Luciferin 4-monooxygenase (Photinus pyralis, UniProt P08659); assay: firefly luciferase enzyme inhibitors, dose response, biochemical, luminescence (AID 1891)
Keap1/Nrf2 = Keap1/Nrf2 (Homo sapiens, UniProt Q14145); assay: Keap1-Nrf2 protein-protein interaction inhibitors, dose response, biochemical, fluorescence polarization, cherry-picked samples (AID 588683)
[6] = biological target: T2, Zinc finger protein mex-5 (Caenorhabditis elegans, UniProt Q9XUB2); assay: MEX-5/TCR-2 RNA interaction inhibitors, dose response, biochemical, C. elegans, fluorescence polarization (AID 1960)
T2 sequence (Q9XUB2 whole entry): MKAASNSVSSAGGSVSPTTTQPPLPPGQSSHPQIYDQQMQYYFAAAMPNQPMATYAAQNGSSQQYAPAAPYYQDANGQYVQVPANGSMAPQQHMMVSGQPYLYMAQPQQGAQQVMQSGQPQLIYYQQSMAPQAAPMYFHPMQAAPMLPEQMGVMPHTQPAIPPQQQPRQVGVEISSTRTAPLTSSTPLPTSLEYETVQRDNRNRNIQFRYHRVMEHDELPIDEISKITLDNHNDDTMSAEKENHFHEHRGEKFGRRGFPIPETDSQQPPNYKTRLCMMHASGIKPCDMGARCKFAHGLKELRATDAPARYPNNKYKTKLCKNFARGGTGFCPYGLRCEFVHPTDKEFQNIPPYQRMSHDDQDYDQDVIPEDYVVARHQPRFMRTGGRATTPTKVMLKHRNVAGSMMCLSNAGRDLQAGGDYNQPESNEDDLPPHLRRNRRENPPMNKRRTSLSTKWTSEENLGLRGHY

[7] = biological target: T3, RNA-binding protein pos-1 (Caenorhabditis elegans, UniProt G5EF15); assay: inhibitors of POS-1/mex-3 RNA binding, dose response, biochemical, fluorescence polarization (AID 1964);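 further: purified POS-1 fused to maltose binding protein made in E. coli; potency of compounds blocking POS-1 binding to fluorescent RNA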
T3 sequence (G5EF15 whole entry): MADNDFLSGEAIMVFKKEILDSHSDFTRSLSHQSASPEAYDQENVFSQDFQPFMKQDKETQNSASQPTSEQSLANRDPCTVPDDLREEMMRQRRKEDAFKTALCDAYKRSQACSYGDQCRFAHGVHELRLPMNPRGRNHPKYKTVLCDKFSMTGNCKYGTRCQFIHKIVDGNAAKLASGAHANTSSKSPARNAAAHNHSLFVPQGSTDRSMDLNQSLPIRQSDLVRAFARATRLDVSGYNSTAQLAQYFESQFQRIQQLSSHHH

Streptokinase A = biological target: T4, Streptokinase A (Streptococcus pyogenes serotype M1, UniProt P10520); assay: S. pyogenes streptokinase expression inhibitors, potency, dose response, plasminogen activation absorbance, OD405 (AID 1914); type: functional, Streptococcus pyogenes M1 GAS;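 further: secreted streptokinase activity via plasminogen activation per viability signal from cell pellet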
T4 sequence (P10520 whole entry): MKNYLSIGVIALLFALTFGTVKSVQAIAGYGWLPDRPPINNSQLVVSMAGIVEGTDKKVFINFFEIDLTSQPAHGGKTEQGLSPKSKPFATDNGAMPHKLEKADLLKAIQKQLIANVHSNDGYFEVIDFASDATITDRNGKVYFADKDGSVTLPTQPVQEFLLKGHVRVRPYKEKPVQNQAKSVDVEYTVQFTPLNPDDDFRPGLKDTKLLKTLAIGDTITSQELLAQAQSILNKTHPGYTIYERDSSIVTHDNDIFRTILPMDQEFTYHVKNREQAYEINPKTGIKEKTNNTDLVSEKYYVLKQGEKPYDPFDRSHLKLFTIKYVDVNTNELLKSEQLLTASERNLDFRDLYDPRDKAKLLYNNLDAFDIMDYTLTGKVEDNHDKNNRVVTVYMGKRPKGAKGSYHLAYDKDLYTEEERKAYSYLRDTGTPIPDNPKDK

[8] = biological target: UDP-galactopyranose mutase (Mycobacterium tuberculosis, UniProt P9WIQ1); assay: Inhibitors of Mycobacterium tuberculosis UDP-galactopyranose mutase (UGM) enzyme Measured in Biochemical System Using Plate Reader - 2105-02_Inhibitor_Dose_CherryPick_Activity. [Related pubchem assays (depositor defined):AID504439]
Sequence of UDP-galactopyranose mutase (P9WIQ1 whole entry): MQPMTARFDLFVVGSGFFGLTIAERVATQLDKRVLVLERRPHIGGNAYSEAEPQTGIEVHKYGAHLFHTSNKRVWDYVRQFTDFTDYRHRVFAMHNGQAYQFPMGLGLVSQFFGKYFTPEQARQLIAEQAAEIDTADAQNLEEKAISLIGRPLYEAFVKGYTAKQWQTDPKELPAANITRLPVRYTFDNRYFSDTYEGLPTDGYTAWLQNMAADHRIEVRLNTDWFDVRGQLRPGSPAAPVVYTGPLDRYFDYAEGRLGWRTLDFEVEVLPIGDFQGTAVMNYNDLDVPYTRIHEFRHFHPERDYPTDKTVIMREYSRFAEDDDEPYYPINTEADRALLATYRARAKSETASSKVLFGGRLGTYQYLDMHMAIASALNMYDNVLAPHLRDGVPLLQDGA

Sequence of Keap1/Nrf2 (Q16236 whole entry): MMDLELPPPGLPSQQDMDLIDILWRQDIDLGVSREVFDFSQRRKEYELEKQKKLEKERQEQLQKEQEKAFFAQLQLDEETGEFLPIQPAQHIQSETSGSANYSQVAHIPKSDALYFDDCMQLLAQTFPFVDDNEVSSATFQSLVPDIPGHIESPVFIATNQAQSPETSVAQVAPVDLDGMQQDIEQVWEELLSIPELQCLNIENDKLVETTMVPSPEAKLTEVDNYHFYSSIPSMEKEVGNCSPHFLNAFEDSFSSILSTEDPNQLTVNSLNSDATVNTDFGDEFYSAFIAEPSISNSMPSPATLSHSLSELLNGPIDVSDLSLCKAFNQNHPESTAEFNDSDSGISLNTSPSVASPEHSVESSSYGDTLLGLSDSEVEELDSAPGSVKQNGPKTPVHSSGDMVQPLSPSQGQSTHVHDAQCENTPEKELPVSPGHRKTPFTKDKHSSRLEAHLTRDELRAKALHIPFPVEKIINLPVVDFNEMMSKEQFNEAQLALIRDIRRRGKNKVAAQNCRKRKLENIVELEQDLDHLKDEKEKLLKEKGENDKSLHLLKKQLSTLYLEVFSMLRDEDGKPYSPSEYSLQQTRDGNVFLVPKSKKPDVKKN
Sequence of Keap1/Nrf2 (Q14145 whole entry): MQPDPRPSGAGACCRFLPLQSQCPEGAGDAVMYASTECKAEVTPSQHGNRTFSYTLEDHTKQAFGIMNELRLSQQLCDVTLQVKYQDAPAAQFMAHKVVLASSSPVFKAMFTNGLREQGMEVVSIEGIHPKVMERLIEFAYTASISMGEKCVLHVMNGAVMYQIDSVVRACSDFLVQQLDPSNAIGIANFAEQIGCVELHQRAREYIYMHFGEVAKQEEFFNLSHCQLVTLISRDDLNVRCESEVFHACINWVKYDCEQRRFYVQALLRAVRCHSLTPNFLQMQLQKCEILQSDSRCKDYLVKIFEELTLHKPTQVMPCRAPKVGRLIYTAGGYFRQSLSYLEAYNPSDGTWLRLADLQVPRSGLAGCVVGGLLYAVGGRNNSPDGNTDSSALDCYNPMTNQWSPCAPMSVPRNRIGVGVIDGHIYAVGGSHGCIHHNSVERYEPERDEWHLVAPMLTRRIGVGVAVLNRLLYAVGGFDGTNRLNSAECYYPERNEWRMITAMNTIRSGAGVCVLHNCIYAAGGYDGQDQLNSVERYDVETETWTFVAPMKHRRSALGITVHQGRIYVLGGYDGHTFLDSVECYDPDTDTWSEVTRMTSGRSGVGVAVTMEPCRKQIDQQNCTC
Sequence of Photoreceptor-specific nuclear receptor (Q9Y5X4 whole entry): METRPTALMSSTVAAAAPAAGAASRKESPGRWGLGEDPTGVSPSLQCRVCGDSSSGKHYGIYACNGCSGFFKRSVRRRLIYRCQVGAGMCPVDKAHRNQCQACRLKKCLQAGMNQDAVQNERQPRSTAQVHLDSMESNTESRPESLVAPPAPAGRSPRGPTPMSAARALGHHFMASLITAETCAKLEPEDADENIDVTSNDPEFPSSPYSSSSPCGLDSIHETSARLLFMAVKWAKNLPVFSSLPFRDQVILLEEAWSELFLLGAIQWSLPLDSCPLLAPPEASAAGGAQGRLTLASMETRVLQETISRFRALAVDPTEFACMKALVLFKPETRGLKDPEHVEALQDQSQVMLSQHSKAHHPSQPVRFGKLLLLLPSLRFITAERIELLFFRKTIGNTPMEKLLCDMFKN
Sequence of Luciferin 4-monooxygenase (P08659 whole entry): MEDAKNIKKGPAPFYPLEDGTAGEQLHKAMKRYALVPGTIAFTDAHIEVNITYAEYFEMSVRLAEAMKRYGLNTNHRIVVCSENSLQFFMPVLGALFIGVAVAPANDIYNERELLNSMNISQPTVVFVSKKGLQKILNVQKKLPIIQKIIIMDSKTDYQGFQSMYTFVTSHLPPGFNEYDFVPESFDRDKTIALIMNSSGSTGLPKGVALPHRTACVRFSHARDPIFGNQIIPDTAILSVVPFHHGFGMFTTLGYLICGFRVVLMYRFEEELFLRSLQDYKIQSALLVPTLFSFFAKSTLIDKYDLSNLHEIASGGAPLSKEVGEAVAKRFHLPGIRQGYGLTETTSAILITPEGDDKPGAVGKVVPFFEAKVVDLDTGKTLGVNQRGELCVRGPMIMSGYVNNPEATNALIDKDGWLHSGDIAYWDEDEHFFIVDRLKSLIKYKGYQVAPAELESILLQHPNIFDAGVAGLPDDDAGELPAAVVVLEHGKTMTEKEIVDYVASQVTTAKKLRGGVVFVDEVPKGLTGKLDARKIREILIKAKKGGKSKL
Sequence of ORF 73 (O40947 whole entry): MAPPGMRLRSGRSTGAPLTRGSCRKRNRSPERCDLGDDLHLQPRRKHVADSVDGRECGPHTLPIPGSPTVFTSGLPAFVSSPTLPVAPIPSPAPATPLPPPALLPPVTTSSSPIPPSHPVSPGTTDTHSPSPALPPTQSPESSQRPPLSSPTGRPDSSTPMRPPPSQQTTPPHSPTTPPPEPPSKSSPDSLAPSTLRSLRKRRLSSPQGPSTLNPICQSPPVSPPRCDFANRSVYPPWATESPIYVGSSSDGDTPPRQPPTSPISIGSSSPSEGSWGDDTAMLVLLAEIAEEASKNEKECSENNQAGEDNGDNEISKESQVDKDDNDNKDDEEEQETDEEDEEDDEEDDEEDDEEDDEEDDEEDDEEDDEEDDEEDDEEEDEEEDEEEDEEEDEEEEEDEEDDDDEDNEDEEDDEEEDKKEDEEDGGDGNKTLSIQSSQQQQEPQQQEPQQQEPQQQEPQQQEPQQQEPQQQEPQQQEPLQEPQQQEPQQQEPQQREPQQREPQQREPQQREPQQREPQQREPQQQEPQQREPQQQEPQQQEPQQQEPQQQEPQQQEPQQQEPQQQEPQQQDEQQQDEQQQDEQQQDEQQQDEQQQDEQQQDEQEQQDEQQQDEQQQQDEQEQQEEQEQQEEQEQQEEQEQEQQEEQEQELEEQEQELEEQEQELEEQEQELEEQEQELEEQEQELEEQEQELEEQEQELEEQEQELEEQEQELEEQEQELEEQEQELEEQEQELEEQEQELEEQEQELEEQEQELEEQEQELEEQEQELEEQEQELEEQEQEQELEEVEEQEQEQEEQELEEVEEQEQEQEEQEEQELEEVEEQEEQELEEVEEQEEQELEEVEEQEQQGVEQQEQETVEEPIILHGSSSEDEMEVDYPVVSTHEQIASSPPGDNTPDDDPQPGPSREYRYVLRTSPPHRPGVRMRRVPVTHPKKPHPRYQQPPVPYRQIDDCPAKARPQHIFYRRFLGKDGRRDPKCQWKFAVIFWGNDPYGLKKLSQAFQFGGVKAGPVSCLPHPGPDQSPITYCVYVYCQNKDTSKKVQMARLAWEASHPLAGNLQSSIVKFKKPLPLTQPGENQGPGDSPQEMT

SMILES | AC50 [1] | IC50 [2] | EC50 [3] | AC50 (ORF 73) | IC50 [4] | EC50 [5] | AC50 (Keap1/Nrf2) | EC50 [6] | EC50 [7] | EC50 (Streptokinase A) | AC50 [8]
Cc1ccc(C2C(C(=O)c3cccs3)=C(O)C(=O)N2c2ccc(S(N)(=O)=O)cc2)cc1 (stereo not drawn) | 48.5 µM (active) |  |  |  |  |  |  |  |  |  | 
O=c1[nH]c2c(s1)C=Nc1ccccc1N2 |  | 2.26 µM (active) | > 260 µM (inactive) | 5.1 µM (active) | 3.14 µM (active) | > 112 µM (not active) | 9.53 µM (active) | 1.23 µM (inconclusive) | 2.6 µM (inconclusive) | > 150 µM (not active) | 
CCOCCCn1/c(=N/C(=O)c2cccs2)c(C#N)cc2c(=O)n3ccccc3nc21 |  |  |  |  |  |  |  | 40 µM (inconclusive) | 28.9 µM (active) |  | > 500 µM (inactive)
